Assay [1] has as its target Muscarinic acetylcholine receptors; M2 & M3 (Homo sapiens) (UniProt P20309+P08172). As to the kind of experiment: Selectivity ratio between Kb values of M2-receptor (atria) and M3-receptor (ileum). It is filed as tissue-based. To be noted: Cavia porcellus.
In assay [2] the target is Muscarinic acetylcholine receptor M3 (Cavia porcellus) (UniProt Q8VH26). As to the kind of experiment: Antimuscarinic activity against muscarinic acetylcholine M3-receptor in guinea pig ileum. It is filed as tissue-based.
Muscarinic acetylcholine receptor M3 (Cavia porcellus), sequence (Q8VH26 1-587): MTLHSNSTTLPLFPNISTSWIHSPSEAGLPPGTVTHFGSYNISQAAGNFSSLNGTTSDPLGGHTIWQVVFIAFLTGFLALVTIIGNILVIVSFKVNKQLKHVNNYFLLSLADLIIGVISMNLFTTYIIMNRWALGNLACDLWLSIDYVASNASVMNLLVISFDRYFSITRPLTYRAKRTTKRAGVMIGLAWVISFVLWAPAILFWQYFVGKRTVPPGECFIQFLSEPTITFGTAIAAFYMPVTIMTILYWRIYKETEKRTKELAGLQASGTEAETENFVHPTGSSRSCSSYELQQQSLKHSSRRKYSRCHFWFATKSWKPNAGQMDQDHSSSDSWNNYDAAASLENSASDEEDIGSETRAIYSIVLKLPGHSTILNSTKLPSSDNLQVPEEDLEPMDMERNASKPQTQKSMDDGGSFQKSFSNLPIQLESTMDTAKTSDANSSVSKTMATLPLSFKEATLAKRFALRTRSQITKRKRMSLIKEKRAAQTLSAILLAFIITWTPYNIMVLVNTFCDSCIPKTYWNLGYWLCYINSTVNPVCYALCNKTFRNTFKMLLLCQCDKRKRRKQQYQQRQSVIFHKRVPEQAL

In the case of `Cc1n(CCC(C(N)=O)(c2ccccc2)c2ccccc2)cc[n+]1Cc1ccccc1Cl`, the Ratio in assay [1] came to 5.67. Further, the Kb in assay [2] amounted to 11.8 nM.

In the case of `CCCC[n+]1ccn(CCC(C(N)=O)(c2ccccc2)c2ccccc2)c1C`, the Ratio in assay [1] is 5.83. Moreover, the Kb in assay [2] is 3.12 nM. In the same order, the values of `Cc1ccccc1C[n+]1ccn(CCC(C(N)=O)(c2ccccc2)c2ccccc2)c1C` are 2.24 and 21.1 nM.

With `Cc1nccn1CCC(C(N)=O)(c1ccccc1)c1ccccc1`, the Ratio in assay [1] was determined as 13.

For `Cc1n(CCC(C(N)=O)(c2ccccc2)c2ccccc2)cc[n+]1Cc1ccc(Cl)cc1`, the Ratio in assay [1] stood at 9.32. The compound also had a Kb in assay [2] of 0.647 nM. As for `Cc1cccc(C[n+]2ccn(CCC(C(N)=O)(c3ccccc3)c3ccccc3)c2C)c1`, in assay [1], the Ratio turned out to be 4.6. In assay [2], this compound had a Kb of 2.52 nM. Take `CCc1nccn1CCC(C(N)=O)(c1ccccc1)c1ccccc1`: the Ratio in assay [1] is 3.3. As for `Cc1n(CCCC(C(N)=O)(c2ccccc2)c2ccccc2)cc[n+]1Cc1ccccc1`, the Ratio in assay [1] came out at 9.94. This compound registered a Kb in assay [2] of 0.639 nM. With `Cc1nccn1CCCCC(C(N)=O)(c1ccccc1)c1ccccc1`, in assay [1], the Ratio was 3.39. For `Cc1n(CCC(C(N)=O)(c2ccccc2)c2ccccc2)cc[n+]1Cc1ccc(-c2ccccc2)cc1`, in assay [1], the Ratio was 24.8. Besides, in assay [2], the Kb is 1.24 nM. The corresponding values for `CC[n+]1ccn(CCC(C(N)=O)(c2ccccc2)c2ccccc2)c1C` are 1.3 and 7.11 nM. Take `Cc1n(CCC(C(N)=O)(c2ccccc2)c2ccccc2)cc[n+]1Cc1cccc(Cl)c1`: the Ratio in assay [1] came out at 4.36. In addition, the Kb in assay [2] turned out to be 5.62 nM. As to `Cc1ccc(C[n+]2ccn(CCC(C(N)=O)(c3ccccc3)c3ccccc3)c2C)cc1`, the Ratio in assay [1] is 7.15. For the same compound, in assay [2], the Kb stood at 1.02 nM.

For the compound `Cc1n(CCC(C(N)=O)(c2ccccc2)c2ccccc2)cc[n+]1C`, the Ratio in assay [1] was determined as 1.68. Moreover, the Kb in assay [2] came out at 3.78 nM. The corresponding values for `CCC[n+]1ccn(CCC(C(N)=O)(c2ccccc2)c2ccccc2)c1C` are 3.02 and 4.07 nM. Take `CCc1n(CCC(C(N)=O)(c2ccccc2)c2ccccc2)cc[n+]1C`: the Ratio in assay [1] is 4.11. This compound also registered a Kb in assay [2] of 1.14 nM. Take `Cc1n(CCC(C(N)=O)(c2ccccc2)c2ccccc2)cc[n+]1Cc1ccc(Br)cc1`: the Ratio in assay [1] was 22.1. For the same compound, the Kb in assay [2] was determined as 0.117 nM.

For `CC(C)(C)c1nccn1CCC(C(N)=O)(c1ccccc1)c1ccccc1`, the Ratio in assay [1] turned out to be 2.45.

For `CCCc1n(CCC(C(N)=O)(c2ccccc2)c2ccccc2)cc[n+]1C`, the Ratio in assay [1] was 1.74. Also, the Kb in assay [2] was found to be 12.5 nM. In the case of `NC(=O)C(CCn1ccnc1)(c1ccccc1)c1ccccc1`, the Ratio in assay [1] came to 13.5.

As for `Cc1n(CCCCC(C(N)=O)(c2ccccc2)c2ccccc2)cc[n+]1Cc1ccccc1`, the Ratio in assay [1] was 26.2. This compound also showed a Kb in assay [2] of 0.756 nM.

As to `Cc1n(CCC(C(N)=O)(c2ccccc2)c2ccccc2)cc[n+]1Cc1ccc([N+](=O)[O-])cc1`, the Ratio in assay [1] was 5.28. Moreover, the Kb in assay [2] worked out at 0.858 nM. For the compound `Cc1nccn1CCCC(C(N)=O)(c1ccccc1)c1ccccc1`, the Ratio in assay [1] was determined as 17.6. `Cc1n(CCC(C(N)=O)(c2ccccc2)c2ccccc2)cc[n+]1Cc1ccccc1`: in assay [1], the Ratio turned out to be 13.5. The Kb in assay [2] stood at 4.96 nM.

As for `CCCc1nccn1CCC(C(N)=O)(c1ccccc1)c1ccccc1`, the Ratio in assay [1] stood at 1.44.
